{"source": "paper PMC10590383", "about": "“Repurposing conformational changes in ANL superfamily enzymes to rapidly generate biosensors for organic and amino acids” (Nature Communications, 2023)", "key": {"GECFINDER-Phe3.1": {"target": "T1, GECFINDER-Phe3.1 (Aneurinibacillus migulanus, UniProt P0C061, F234I)", "T1 construct": "gene grsA", "T1 sequence (P0C061 1-617 F234I)": "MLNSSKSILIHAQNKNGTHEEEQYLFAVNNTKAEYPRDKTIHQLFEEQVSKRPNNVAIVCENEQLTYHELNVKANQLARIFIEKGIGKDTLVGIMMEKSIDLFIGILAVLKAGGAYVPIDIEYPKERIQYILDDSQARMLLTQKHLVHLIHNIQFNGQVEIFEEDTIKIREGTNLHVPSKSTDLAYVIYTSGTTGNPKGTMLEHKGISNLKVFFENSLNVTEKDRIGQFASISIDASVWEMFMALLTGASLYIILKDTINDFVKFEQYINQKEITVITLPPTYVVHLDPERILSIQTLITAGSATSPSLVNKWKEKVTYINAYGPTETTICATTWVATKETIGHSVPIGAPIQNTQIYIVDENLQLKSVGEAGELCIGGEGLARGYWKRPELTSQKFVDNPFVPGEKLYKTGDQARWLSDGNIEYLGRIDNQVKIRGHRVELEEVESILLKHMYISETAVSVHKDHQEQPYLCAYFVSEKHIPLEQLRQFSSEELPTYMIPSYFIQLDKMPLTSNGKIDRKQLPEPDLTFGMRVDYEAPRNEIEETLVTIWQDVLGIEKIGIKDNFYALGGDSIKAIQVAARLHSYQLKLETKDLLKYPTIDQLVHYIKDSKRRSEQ", "assay": "Fluorescence dose-response of purified affinity-lowered […]-Phe3 mutants with phenylalanine, 100 mM Tris pH 7.5, room temperature, 1 mM ATP, 2.5 mM MgCl2.", "format": "biochemical", "description": "(§1) Generally, industrial amino acid-producing strains produce phenylalanine at the grams per liter level, which greatly exceeds the dynamic range of […]-Phe3. Thus, we had to re-engineer the affinity of […]-Phe3 without affecting its ligand specificity, for phenylalanine to enable the screening of industrial phenylalanine-producing strains First, we performed virtual alanine scanning on the amino acid residues near the substrate pocket of […]-Phe3 using Discovery Studio 2019. […] Subsequently, we performed virtual saturation mutations on the F234 site (Supplementary Fig. 8b) and selected F234I, which has a medium mutation energy value ranking, for experimental verification. […] To further reduce the affinity of the F234I mutant ([…]-Phe3.1) for phenylalanine, a site-saturation library of A301 based on […]-Phe3.1 was created and screened. […] The substrate specificity and thermal stability of […]-Phe3.2 were evaluated.\n(§2) Fig. 5 […] applies for FADS sorting. a Dose–response curves of purified […]-Phe3, 3.1 and 3.2 with increasing concentrations of phenylalanine. b Phenylalanine biosynthesis pathway in C. glutamicum. Dotted and dashed lines represented feedback inhibition and repression, respectively. Two target genes were highlighted in red. […] RBS strength was determined using a GFP reporter system. Scale bar represented GFP fluorescence normalized with OD600 nm. […]"}, "GECFINDER-Phe3.2": {"target": "T2, GECFINDER-Phe3.2 (Aneurinibacillus migulanus, UniProt P0C061, A301E/F234I)", "T2 construct": "gene grsA", "T2 sequence (P0C061 1-617 F234I/A301E)": "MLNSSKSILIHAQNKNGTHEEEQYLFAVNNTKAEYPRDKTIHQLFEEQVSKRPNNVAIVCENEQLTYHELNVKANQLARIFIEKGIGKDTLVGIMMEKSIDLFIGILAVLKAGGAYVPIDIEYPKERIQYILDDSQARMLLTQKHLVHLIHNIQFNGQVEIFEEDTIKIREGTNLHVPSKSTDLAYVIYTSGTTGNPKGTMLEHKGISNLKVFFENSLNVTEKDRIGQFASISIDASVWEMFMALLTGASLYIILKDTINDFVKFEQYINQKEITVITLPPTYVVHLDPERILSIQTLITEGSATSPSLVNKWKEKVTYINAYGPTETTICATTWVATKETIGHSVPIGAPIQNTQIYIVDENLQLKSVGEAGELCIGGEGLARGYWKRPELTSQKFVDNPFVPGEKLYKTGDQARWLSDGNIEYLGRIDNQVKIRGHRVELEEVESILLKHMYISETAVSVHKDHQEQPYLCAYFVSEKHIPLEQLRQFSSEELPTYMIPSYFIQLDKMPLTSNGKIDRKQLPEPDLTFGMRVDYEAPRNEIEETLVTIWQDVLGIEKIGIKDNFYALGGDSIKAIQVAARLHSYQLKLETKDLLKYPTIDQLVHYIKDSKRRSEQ", "assay": "Fluorescence dose-response of purified affinity-lowered […]-Phe3 mutants with phenylalanine, 100 mM Tris pH 7.5, room temperature, 1 mM ATP, 2.5 mM MgCl2.", "format": "biochemical", "description": "as §1, §2"}}}
{"smiles": "N[C@@H](Cc1ccccc1)C(=O)O", "note": "[Phe, phenylalanine]", "values": [{"measurement": "EC50", "setting": "GECFINDER-Phe3.1", "result": 7.51, "unit": "µM"}, {"measurement": "EC50", "setting": "GECFINDER-Phe3.2", "result": 67.6, "unit": "µM"}]}
